Experimental data from PMC10465592, “Reduced ADP off-rate by the yeast CCT2 double mutation T394P/R510H which causes Leber congenital amaurosis in humans” (Communications Biology, 2023).

Key:
[1] = target: T1, CCT/TRiC (Saccharomyces cerevisiae); experiment: stopped-flow transient kinetics of phosphate release (labelled phosphate-binding protein), burst-phase rates fit to conformational selection; format: biochemical; settings: 25 °C, pH 7.5 Tris-HCl, 10 mM MgCl2, 50 mM KCl, 20% glycerol, 1 mM DTT; stronger of two burst phases; read-out: ATP affinity (Kd)
T1 construct: gene CCT2; native complex from yeast cells, two back-to-back rings each of eight distinct subunits CCT1-CCT8; CCT2 mutations introduced in the chromosomal gene

[2] = target: T1, CCT/TRiC (Saccharomyces cerevisiae); experiment: stopped-flow transient kinetics of phosphate release (labelled phosphate-binding protein), burst-phase rates fit to simple binding; format: biochemical; settings: 25 °C, pH 7.5 Tris-HCl, 10 mM MgCl2, 50 mM KCl, 20% glycerol, 1 mM DTT; both burst phases similar; read-out: ATP affinity (Kd)
Description: stopped-flow transient kinetics of phosphate release (labelled phosphate-binding protein), burst-phase rates fit to simple binding on CCT/TRiC (Saccharomyces cerevisiae) | the ATP affinities corresponding to the two burst phases are similar and found to be

Compound: Nc1ncnc2c1ncn2[C@@H]1O[C@H](COP(=O)(O)OP(=O)(O)OP(=O)(O)O)[C@@H](O)[C@H]1O [ATP]
- Kd [1]: ~27 µM
- Kd [2]: ~7 µM
